Among the data in ChEMBL document CHEMBL1123073, “Conjugates of catecholamines. 6. Synthesis and beta-adrenergic activity of N-(hydroxyalkyl)catecholamine derivatives” (1985) are Relative potency values, retold here.

This test is described as follows: Relative potency was determined in vitro by measuring the accumulation of cyclic AMP in SV-49 mouse lymphoma cells relative to dl-isoproterenol. Format: functional.

In turn, `O=P(O)(O)O.OCCCNCC(O)c1ccc(O)c(O)c1` (centres undefined) yielded a Relative potency of 0.0058.

`Cc1ccc(C(=O)OCCCC(C)NCC(O)c2ccc(O)c(O)c2)cc1.O=P(O)(O)O` (centres undefined): the Relative potency worked out at 0.0063.

Turning to `CC(CCCOC(=O)NC1CCCCC1)NCC(O)c1ccc(O)c(O)c1.Cl` (centres undefined), the Relative potency came out at 29.

`Cc1ccc(NC(=O)OCCCCC(C)NCC(O)c2ccc(O)c(O)c2)cc1.O=P(O)(O)O` (centres undefined): the Relative potency amounted to 1.3.

`Cc1ccc(C(=O)NC(=O)OCCCC(C)NCC(O)c2ccc(O)c(O)c2)cc1.Cl` (centres undefined) displayed a Relative potency of 73.

`CC(CCO)NCC(O)c1ccc(O)c(O)c1.O=P(O)(O)O` (centres undefined) returned a Relative potency of 0.012.

On to `CCCCNC(=O)OCCCC(C)NCC(O)c1ccc(O)c(O)c1.O=P(O)(O)O` (centres undefined), for which the Relative potency came out at 190.

As for `Cc1ccc(NC(=O)OCCCC(C)NCC(O)c2ccc(O)c(O)c2)cc1.O=P(O)(O)O` (centres undefined), the Relative potency was determined as 0.092.

Molecule `CC(CCCO)NCC(O)c1ccc(O)c(O)c1.O=P(O)(O)O` (centres undefined) had a Relative potency of 1.3.
